US9833497B2, “Human originated EGF domain proteins and use of the same” (CHENGDU SOURCEBIO LIMITED-LIABILITY COMPANY, priority 2013, dated 2017)

What was measured:
Assay type in all cases: cell-based
E. coli DH5α = assay: Antibacterial activity: MIC and growth curve against E. coli DH5α in 96-well plate; settings: minimal inhibitory concentration against E. coli DH5α; 96-well plate, 5×10^5 CFU/mL, 37° C., judged after 8 h
Outline: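 Log-phase bacteria (OD600 ~0.5) resuspended in LB at 5×10^5 CFU/mL, exposed to recombinant protein at 50, 25, 12.5 μg/mL final in triplicate, 37 °C shaking at 175 rpm. OD600 read every 30 min; MIC is lowest concentration showing no growth.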

E. coli BL21 = assay: MIC against Gram-negative bacteria: E. coli BL21; settings: 5×10^5 CFU/mL
Outline: (§1)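 First, colonies from LB agar were grown in LB at 37° C, 185 rpm, to McFarland turbidity 0.5, then centrifuged and resuspended in fresh LB. Next, wells received 5×10^5 CFU/mL bacteria plus two-fold serially diluted EGF domain protein (triplicate). Finally, plates were shaken at 37° C and the no-growth concentration taken as MIC.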

Pseudomonas aeruginosa = assay: MIC against Gram-negative bacteria: Pseudomonas aeruginosa; settings: 5×10^5 CFU/mL
Outline: as §1

Klebsiella pneumonia = assay: MIC against Gram-negative bacteria: Klebsiella pneumonia; settings: 5×10^5 CFU/mL
Outline: as §1

Enterobacter cloacae = assay: MIC against Gram-negative bacteria: Enterobacter cloacae; settings: 5×10^5 CFU/mL
Outline: as §1

Aeromonas hydrophila = assay: MIC against Gram-negative bacteria: Aeromonas hydrophila; settings: 5×10^5 CFU/mL
Outline: as §1

Citrobacter diversus = assay: MIC against Gram-negative bacteria: Citrobacter diversus; settings: 5×10^5 CFU/mL
Outline: as §1

Moraxella catarrhalis = assay: MIC against Gram-negative bacteria: Moraxella catarrhalis; settings: 5×10^5 CFU/mL
Outline: as §1

Proteus mirabilis = assay: MIC against Gram-negative bacteria: Proteus mirabilis; settings: 5×10^5 CFU/mL
Outline: as §1

Proteus vulgaris = assay: MIC against Gram-negative bacteria: Proteus vulgaris; settings: 5×10^5 CFU/mL
Outline: as §1

Serratia marcescens = assay: MIC against Gram-negative bacteria: Serratia marcescens; settings: 5×10^5 CFU/mL
Outline: as §1

[1] = E. coli BL21, 10 h cultivation at 37° C.
[2] = 10 h cultivation at 37° C., two-fold serial dilution

PRT625 (CNCSGRSEECTFDRELFRSTGHGGRCHHCRDHTAGPHCERCQENFYHWDPRMPCQP; listed as Homo sapiens)
12.5 µg/mL: MIC (E. coli DH5α) | MIC P. aeruginosa (Pseudomonas aeruginosa; 96-well plate, 37° C., 10 h) | MIC C. diversus (Citrobacter diversus; 96-well plate, 37° C., 10 h) | MIC S. marcescens (Serratia marcescens; 96-well plate, 37° C., 10 h)
25 µg/mL: MIC E. coli BL21 (E. coli BL21; 96-well plate, 37° C., 10 h) | MIC K. pneumonia (Klebsiella pneumonia; 96-well plate, 37° C., 10 h) | MIC A. hydrophila (Aeromonas hydrophila; 96-well plate, 37° C., 10 h) | MIC M. catarrhalis (Moraxella catarrhalis; 96-well plate, 37° C., 10 h) | MIC P. vulgaris (Proteus vulgaris; 96-well plate, 37° C., 10 h)
50 µg/mL: MIC E. cloacae (Enterobacter cloacae; 96-well plate, 37° C., 10 h) | MIC P. mirabilis (Proteus mirabilis; 96-well plate, 37° C., 10 h)

PRT773 (PSNPCQDDPCADNSLCVKLHNTSFCLCLEGYYYNSSTCK; listed as Homo sapiens)
50 µg/mL: MIC (E. coli DH5α) | MIC (μg/mL) K. pneumonia (Klebsiella pneumonia; 10 h cultivation at 37° C.) | MIC (μg/mL) A. hydrophila (Aeromonas hydrophila; 10 h cultivation at 37° C.) | MIC (μg/mL) M. catarrhalis (Moraxella catarrhalis; 10 h cultivation at 37° C.) | MIC (μg/mL) P. vulgaris (Proteus vulgaris; 10 h cultivation at 37° C.)
12.5 µg/mL: MIC (μg/mL) P. aeruginosa (Pseudomonas aeruginosa; 10 h cultivation at 37° C.) | MIC (μg/mL) E. cloacae (Enterobacter cloacae; 10 h cultivation at 37° C.) | MIC (μg/mL) C. diversus (Citrobacter diversus; 10 h cultivation at 37° C.) | MIC (μg/mL) P. mirabilis (Proteus mirabilis; 10 h cultivation at 37° C.) | MIC (μg/mL) S. marcescens (Serratia marcescens; 10 h cultivation at 37° C.)
25 µg/mL: MIC (μg/mL) E. coli BL21 (E. coli BL21; [1])

PRT224 (DVNECDMGAPCEQRCFNSYGTFLCRCHQGYELHRDGFSCS; listed as Homo sapiens)
50 µg/mL: MIC (μg/mL) S. marcescens (Serratia marcescens; 10 h cultivation at 37° C.)
12.5 µg/mL: MIC (μg/mL) E. coli BL21 (E. coli BL21; [1]) | MIC (μg/mL) K. pneumonia (Klebsiella pneumonia; 10 h cultivation at 37° C.) | MIC (μg/mL) E. cloacae (Enterobacter cloacae; 10 h cultivation at 37° C.) | MIC (μg/mL) A. hydrophila (Aeromonas hydrophila; 10 h cultivation at 37° C.) | MIC (μg/mL) C. diversus (Citrobacter diversus; 10 h cultivation at 37° C.) | MIC (μg/mL) M. catarrhalis (Moraxella catarrhalis; 10 h cultivation at 37° C.) | MIC (μg/mL) P. mirabilis (Proteus mirabilis; 10 h cultivation at 37° C.) | MIC (μg/mL) P. vulgaris (Proteus vulgaris; 10 h cultivation at 37° C.)
25 µg/mL: MIC (E. coli DH5α) | MIC (μg/mL) P. aeruginosa (Pseudomonas aeruginosa; 10 h cultivation at 37° C.)

PRT870 (CECFGHSNRCSYIDLLNTVICVSCKHNTRGQHCELCRLGYFRNASAQLDDENVCIE; listed as Homo sapiens)
12.5 µg/mL: MIC (E. coli DH5α) | MIC (μg/mL) A. hydrophila (Aeromonas hydrophila; 10 h cultivation at 37° C.) | MIC (μg/mL) P. vulgaris (Proteus vulgaris; 10 h cultivation at 37° C.)
25 µg/mL: MIC (μg/mL) E. cloacae (Enterobacter cloacae; 10 h cultivation at 37° C.) | MIC (μg/mL) C. diversus (Citrobacter diversus; 10 h cultivation at 37° C.) | MIC (μg/mL) P. mirabilis (Proteus mirabilis; 10 h cultivation at 37° C.)
100 µg/mL: MIC (μg/mL) P. aeruginosa (Pseudomonas aeruginosa; 10 h cultivation at 37° C.)
50 µg/mL: MIC (μg/mL) E. coli BL21 (E. coli BL21; [1]) | MIC (μg/mL) K. pneumonia (Klebsiella pneumonia; 10 h cultivation at 37° C.) | MIC (μg/mL) M. catarrhalis (Moraxella catarrhalis; 10 h cultivation at 37° C.) | MIC (μg/mL) S. marcescens (Serratia marcescens; 10 h cultivation at 37° C.)

PRT1387 (IMDDCSTNCNGNGECISGHCHCFPGFLGPDCA; listed as Homo sapiens)
25 µg/mL: MIC against K. pneumonia (Klebsiella pneumonia; Klebsiella pneumonia, 10 h cultivation at 37° C.) | MIC against C. diversus (Citrobacter diversus; Citrobacter diversus, 10 h cultivation at 37° C.) | MIC against P. mirabilis (Proteus mirabilis; Proteus mirabilis, 10 h cultivation at 37° C.) | MIC against S. marcescens (Serratia marcescens; Serratia marcescens, 10 h cultivation at 37° C.)
12.5 µg/mL: MIC (E. coli DH5α) | MIC against E. coli BL21 (E. coli BL21; [1]) | MIC against E. cloacae (Enterobacter cloacae; Enterobacter cloacae, 10 h cultivation at 37° C.) | MIC against M. catarrhalis (Moraxella catarrhalis; Moraxella catarrhalis, 10 h cultivation at 37° C.) | MIC against P. vulgaris (Proteus vulgaris; Proteus vulgaris, 10 h cultivation at 37° C.)
50 µg/mL: MIC against P. aeruginosa (Pseudomonas aeruginosa; Pseudomonas aeruginosa, 10 h cultivation at 37° C.) | MIC against A. hydrophila (Aeromonas hydrophila; Aeromonas hydrophila, 10 h cultivation at 37° C.)

PRT1090 (NNTRCLSNSCQNNSTCKDFSKDNDCSCSDTANNLDKDCD; listed as Homo sapiens)
25 µg/mL: MIC (E. coli DH5α) | MIC C. diversus (Citrobacter diversus; [2]) | MIC P. mirabilis (Proteus mirabilis; [2]) | MIC S. marcescens (Serratia marcescens; [2])
50 µg/mL: MIC P. aeruginosa (Pseudomonas aeruginosa; [2]) | MIC E. cloacae (Enterobacter cloacae; [2]) | MIC M. catarrhalis (Moraxella catarrhalis; [2])
12.5 µg/mL: MIC E. coli BL21 (E. coli BL21; [2]) | MIC K. pneumonia (Klebsiella pneumonia; [2]) | MIC A. hydrophila (Aeromonas hydrophila; [2]) | MIC P. vulgaris (Proteus vulgaris; [2])
